Legend:
[1] = system: human hair follicles-derived dermal papilla cells; assay: MTT cell division and activation in dermal papilla cells; format: cell-based; conditions: peptide 0.5 μg/ml and 5 μg/ml, 48 hours, minoxidil 1 mM positive control
Description: (§1) Primary cultured human hair follicles-derived dermal papilla cells and outer root sheath cells were subcultured to passages 2 to 3, and then treated with minoxidil, which has been conventionally used as an agent for preventing hair loss and treating hair growth as a positive control at a concentration of 1 mM, and separately treated with the adiponectin-derived peptide of the present invention prepared in Example 1 at concentrations of 0.5 μg/ml and 5 μg/ml. After 48 hours, the activated living cells were stained with an MTT solution and compared with a negative control group, and the degree of division and activation of the cells was confirmed.

[2] = system: human hair follicles-derived outer root sheath cells; assay: MTT cell division and activation in outer root sheath cells; format: cell-based; conditions: peptide 0.5 μg/ml and 5 μg/ml, 48 hours, minoxidil 1 mM positive control
Description: as §1

Substance | cell division of dermal papilla cells [1] | cell division of outer root sheath cells [2]
NIPGL (P10 peptide from adiponectin (NIPGL)) [adiponectin-derived 5-mer peptide] | more excellent effect than minoxidil | more excellent effect than minoxidil
GLYYF (P5 peptide from adiponectin (GLYYF)) [adiponectin-derived 5-mer peptide] | more excellent effect than minoxidil | more excellent effect than minoxidil
